Where two headings read alike, the source gives them in different places. *1 amine or outer side, *2 acyl side, *3 side chain or, on linkers, in order; H or OH if unused. Where a SMILES comes first, the peptide text is derived from it. Bridges are numbered along the chain shown (N, C = ends). Roman numbers before positions name the chains, in order. [ ]: non-standard residue; d: D form. Actinocin(9to1) = Cc1c2oc3c(C)ccc(C(=O)[*:1])c3nc-2c(C(=O)[*:2])c(N)c1=O; NMeV = CN[C@H](C(=O)O)C(C)C; Sar = CNCC(=O)O
Key:
[1] = system: Saccharomyces cerevisiae strain S288C; assay: Filter disc zone-of-inhibition test of yeast growth with or without PBN in the agar overlay; assay type: cell-based; details: for inhibition of yeast growth in relation to the carbon source: glycerol or glucose as the carbon source; for Area of Zone of Inhibition, Control / effect on yeast growth, control sample: no PBN; for Area of Zone of Inhibition, Control / Area of Zone of Inhibition, PBN (4.8 A260 units): 30°C, 48 hours; for Area of Zone of Inhibition, PBN (4.8 A260 units): with PBN 4.8 A260 units; for Area of Zone of Inhibition: rifampicin 2.5 mg/disc; for effect on yeast growth, control sample / effect on yeast growth, PBN-containing sample: kanamycin 5.0, streptomycin 2.5, chloramphenicol 0.25 mg/disc, data not shown in Table 1; for effect on yeast growth, PBN-containing sample: with PBN
Description: (§1) A convenient method for ascertaining the inhibition of growth of yeast cells is as follows. A sample of yeast cells (about 10 7 cells) from a viable overnight culture is added to a molten agar-containing growth medium to which has been added the desired amount of PBN. The resulting suspension is mixed rapidly and then poured onto an agar plate containing a suitable growth medium. The molten agar is allowed to solidify and sterile filter discs are placed on the surface. The solution of antibiotics to be tested are then pipetted onto the discs (50 microliters per disc). The plates are incubated and "read" for antibiotic sensitivity as determined by the zone of inhibition around the disc.
(§2) Saccharomyces cerevisiae strain S288C was grown for 16 hours at 30°C in a liquid medium consisting of 1% (w/v) yeast extract, 2% (w/v) peptone, and 2% (w/v) glucose (YPD medium). One drop of cell suspension from this culture (about 5 x 10^6 to about 1 X 10 ^7 cells) was added to each of 2 tubes containing 3 ml of 0.7% agar, 1% yeast extract, 2% peptone, 2% glycerol (or alternatively 2% glucose as a carbon source) and 0.25 ml of 5 M NaCl maintained at 45-50°C to prevent the agar from solidifying. One tube contained., in addition to the above, 0.5 ml of PBN solution (4.8 A260 units) prepared as described above. The other tube served as a control. The tube contents were mixed rapidly and poured onto a Petri plate containing 25 ml of 2% agar, 1% yeast extract, 2% peptone, and 2% glycerol (YPG medium). After the agar had solidified, sterile filter disks (0.5 inch diameter) were placed on the surface of the agar and solutions of various antibiotics to be tested were pipetted onto the disks. The plates were incubated at 30°C for 48 hours and the inhibition of growth was determined by measuring the area of a zone of clearing formed around the discs (minus the area of the disc).
The procedure described in Example I was repeated with Saccharomyces cerevisiae strain S288C except that increasing amounts of PBN were used. The rifampicin concentration on the discs was maintained at 2.5 mg/disc throughout.

[2] = system: Candida albicans (ATCC 10231); assay: as above; assay type: cell-based
Description: as §1, §2
The procedure described in Example I was repeated with Candida albicans (ATCC 10231). Inhibition of growth of this organism by G-418, rifampicin, cycloheximide and actinomycin D in the presence and absence (control) of PBN was determined.

[3] = YPD medium used for plating, 0.5 mg/disk in dimethylsulfoxide
[4] = no PBN, G-418 5.0, rifampicin 2.5, cycloheximide 0.5, actinomycin D 0.5 mg/disk
[5] = with PBN 3.0 A260 units per plate in YPD medium, G-418 5.0, rifampicin 2.5, cycloheximide 0.5, actinomycin D 0.5 mg/disk
[6] = YPG medium, erythromycin 0.5, G-418 5.0, rifampicin 2.5 mg/disk

SMILES	inhibition of yeast growth in relation to the carbon source [1]	Area of Zone of Inhibition, Control [2, 4]	Area of Zone of Inhibition, PBN [2, 5]	Area of Zone of Inhibition, Control [1, 6]	Area of Zone of Inhibition, PBN (4.8 A260 units) [1, 6]	effect on yeast growth, control sample [1]	effect on yeast growth, PBN-containing sample [1]	other results
Cc1c2oc3c(C)ccc(C(=O)N[C@@H]4C(=O)N[C@H](C(C)C)C(=O)N5CCC[C@H]5C(=O)N(C)CC(=O)N(C)[C@@H](C(C)C)C(=O)O[C@@H]4C)c3nc-2c(C(=O)N[C@@H]2C(=O)N[C@H](C(C)C)C(=O)N3CCC[C@H]3C(=O)N(C)CC(=O)N(C)[C@@H](C(C)C)C(=O)O[C@@H]2C)c(N)c1=O [Actinomycin D] (I: T[dV]P[Sar][NMeV] / II: T[dV]P[Sar][NMeV]; ester I:1-I:C, II:1-II:C; linker I:N-II:N via Actinocin(9to1))	exhibited inhibition of yeast growth regardless of the carbon source	<3 mm^2	452 mm^2					Area of Zone of Inhibition, Control [1, 3]: <3 mm^2; Area of Zone of Inhibition, PBN (4.8 A260 units) [1, 3]: 314 mm^2
C[C@@H]1C[C@@H]([C@H](O)CC2CC(=O)NC(=O)C2)C(=O)[C@@H](C)C1 [Cycloheximide]								Area of Zone of Inhibition, Control [2]: <3 mm^2; Area of Zone of Inhibition, PBN [2]: 64 mm^2
CC[C@H]1OC(=O)[C@H](C)[C@@H](O[C@H]2C[C@@](C)(OC)[C@@H](O)[C@H](C)O2)[C@H](C)[C@@H](O[C@@H]2O[C@H](C)C[C@H](N(C)C)[C@H]2O)[C@](C)(O)C[C@@H](C)C(=O)[C@H](C)[C@@H](O)[C@]1(C)O [Erythromycin]	effective in this test system only when glycerol (rather than glucose) is used as the carbon source			80 mm^2	227 mm^2			
CN[C@@H]1[C@@H](O)[C@@H](O[C@@H]2[C@@H](O)[C@H](O[C@H]3O[C@H]([C@@H](C)O)[C@@H](O)[C@H](O)[C@H]3N)[C@@H](N)C[C@H]2N)OC[C@]1(C)O [G-418]	exhibited inhibition of yeast growth regardless of the carbon source	20 mm^2	346 mm^2	113 mm^2	490 mm^2			
CO[C@H]1/C=C/O[C@@]2(C)Oc3c(C)c(O)c4c(O)c(c(/C=N/N5CCN(C)CC5)c(O)c4c3C2=O)NC(=O)/C(C)=C\C=C\[C@H](C)[C@H](O)[C@@H](C)[C@@H](O)[C@@H](C)[C@H](OC(C)=O)[C@@H]1C [Rifampicin]		<3 mm^2	3 mm^2	<3 mm^2	95 mm^2			Area of Zone of Inhibition ([1]; PBN 0.0 A260 units): 0 mm^2; Area of Zone of Inhibition ([1]; PBN 1.0 A260 units): 3.0 mm^2; Area of Zone of Inhibition ([1]; PBN 2.0 A260 units): 20.0 mm^2; Area of Zone of Inhibition ([1]; PBN 3.0 A260 units): 38.5 mm^2; Area of Zone of Inhibition ([1]; PBN 4.0 A260 units): 38.5 mm^2; Area of Zone of Inhibition ([1]; PBN 5.0 A260 units): 50.0 mm^2; Area of Zone of Inhibition ([1]; PBN 6.0 A260 units): 64.0 mm^2; Area of Zone of Inhibition ([1]; PBN 7.0 A260 units): 78.5 mm^2; Area of Zone of Inhibition ([1]; PBN 8.0 A260 units): 71.0 mm^2; Area of Zone of Inhibition ([1]; PBN 9.0 A260 units): 78.5 mm^2; Area of Zone of Inhibition ([1]; PBN 10.0 A260 units): 95.0 mm^2
O=C(N[C@H](CO)[C@H](O)c1ccc([N+](=O)[O-])cc1)C(Cl)Cl [chloramphenicol]						no effect	no effect	
NC[C@H]1O[C@H](O[C@H]2[C@H](O)[C@@H](O[C@H]3O[C@H](CO)[C@@H](O)[C@H](N)[C@H]3O)[C@H](N)C[C@@H]2N)[C@H](O)[C@@H](O)[C@@H]1O [kanamycin]						no effect	no effect	
[H]/N=C(/N)N[C@H]1[C@H](O)[C@@H](O)[C@H](O[C@@H]2O[C@@H](C)[C@](O)(C=O)[C@H]2O[C@@H]2O[C@@H](CO)[C@H](O)[C@@H](O)[C@@H]2NC)[C@@H](N/C(N)=N\[H])[C@@H]1O [streptomycin]						no effect	no effect	
